Some test systems named below: KM12; OVCAR-5; PC-3; SW-620; IGROV-1; SF-268; CAKI-1; COLO 205; OVCAR-8; NCI-H460; ACHN; LOX IMVI; LXFL 529; HOP-62; SNB-75; UACC-257; U-251; TK-10; HCT-15; T47D.
Holding throughout (assay): DTP human tumour cell line panel, 48 h

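Protocol summary: plate cells (96-well), add compound at 5 concentrations, incubate 48 h, interpolate endpoints linearly. GI50: concentration for 50% inhibition of growth.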 Activity calls are given as the source filed them. No stated cut-off is given here; in the data, active = GI50 up to about 1.1 µM and inactive = higher.

As to `COc1ccc(/C=C2\CCC(CN(C)C)C2=O)cc1` (centres undefined), the GI50 in the experiment on KM12 was 8.26 µM (inactive); in the experiment with OVCAR-5, 13.6 µM (inactive); with PC-3, 5.12 µM (inactive); with SW-620, 1.96 µM (inactive); in the experiment with IGROV-1 it was 8.47 µM (inactive); with SF-268 it was 9.71 µM (inactive). The GI50 with CAKI-1 was 2.4 µM (inactive); with COLO 205 it was 3.42 µM (inactive); in the experiment with OVCAR-8, 3.24 µM (inactive); in the experiment on NCI-H460, 16.6 µM (inactive); in the experiment with ACHN it was 9.77 µM (inactive); with LOX IMVI it was 1.93 µM (inactive). Also, the GI50 was 2.05 µM (inactive) in the experiment with LXFL 529; 12.2 µM (inactive) with HOP-62; 12.4 µM (inactive) in the experiment with SNB-75; 3.75 µM (inactive) in the experiment with UACC-257; 18.3 µM (inactive) with U-251; 5.98 µM (inactive) in the experiment with TK-10. In the experiment with HCT-15, the GI50 was 2.29 µM.
For the compound `N#Cc1c(-c2ccc(Cl)cc2)c(-c2ccc(Cl)cc2)nn(CCOC(=O)CCC(=O)O)c1=O`, the GI50 with KM12 was 0.245 µM (active); in the experiment on OVCAR-5, 1.27 µM (inactive); in the experiment on T47D, > 32.3 µM (inactive); in the experiment on PC-3 it was 0.423 µM (active); in the experiment on SW-620, 0.995 µM (active); in the experiment on IGROV-1, 0.925 µM (active). Further, the GI50 in the experiment on SF-268 was 0.809 µM (active); with CAKI-1, 1.83 µM (inactive); with COLO 205, 0.582 µM (active); in the experiment on OVCAR-8 it was 1.02 µM (active); in the experiment with NCI-H460, 0.807 µM (active); in the experiment with ACHN, 1.45 µM (inactive). The GI50 with LOX IMVI is 0.667 µM (active); with LXFL 529, 1.03 µM (active); in the experiment on HOP-62, 0.64 µM (active); in the experiment on SNB-75, 0.193 µM (active); with UACC-257 it was 9.64 µM (inactive); in the experiment on U-251, 0.505 µM (active). For the same compound, the GI50 with TK-10 is 4.11 µM (inactive); in the experiment on HCT-15, 0.532 µM.
With `C[C@]12CCC3[C@@H](CC[C@@H]4c5nonc5CC[C@]34C)C1CCC2=O` (some centres undefined), the GI50 in the experiment with KM12 was 20.7 µM (inactive); in the experiment with OVCAR-5, 29.3 µM (inactive); in the experiment on SW-620 it was 37.2 µM (inactive); in the experiment on IGROV-1 it was 40.6 µM (inactive); in the experiment on SF-268 it was 33.6 µM (inactive); in the experiment on CAKI-1, 22.9 µM (inactive). The GI50 in the experiment with COLO 205 was 16.9 µM (inactive); in the experiment on OVCAR-8, 31.7 µM (inactive); in the experiment on NCI-H460, 19.2 µM (inactive); with ACHN it was 24.5 µM (inactive); with LOX IMVI, 19.6 µM (inactive); with LXFL 529, 23.3 µM (inactive). The GI50 was 40.6 µM (inactive) in the experiment with HOP-62; 35.4 µM (inactive) with SNB-75; 18 µM (inactive) with UACC-257; 16 µM (inactive) in the experiment with U-251; 29 µM (inactive) with TK-10; 29.8 µM in the experiment on HCT-15.
On to `Nc1ccn(CCCC(c2ccccc2)P(=O)(O)O)c(=O)n1` (centres undefined), for which the GI50 in the experiment with KM12, in the experiment on OVCAR-5, in the experiment with SW-620, in the experiment on IGROV-1, in the experiment with SF-268 and with CAKI-1 was > 100 µM (inactive) throughout. Besides, the GI50 in the experiment with COLO 205, with OVCAR-8, with NCI-H460, in the experiment with ACHN, in the experiment with LOX IMVI and with LXFL 529 was > 100 µM (inactive) throughout. Besides, the GI50 with HOP-62 is > 100 µM (inactive); in the experiment with SNB-75 it was > 100 µM (inactive); with UACC-257, > 100 µM (inactive); in the experiment on U-251 it was > 100 µM (inactive); with TK-10 it was > 100 µM (inactive); in the experiment on HCT-15, > 100 µM.
Take `C[C@]12CCC3[C@@H](CC[C@@H]4c5nonc5CC[C@]34C)C1C/C(=N/O)C2=O` (some centres undefined): the GI50 in the experiment with KM12 was > 100 µM (inactive); with OVCAR-5, > 100 µM (inactive); with SW-620, > 100 µM (inactive); in the experiment on IGROV-1 it was > 100 µM (inactive); in the experiment on SF-268 it was 11.2 µM (inactive); in the experiment on CAKI-1, 4.34 µM (inactive). Besides, the GI50 in the experiment with COLO 205 was > 100 µM (inactive); with OVCAR-8, > 100 µM (inactive); in the experiment on NCI-H460, > 100 µM (inactive); in the experiment on ACHN it was 41 µM (inactive); in the experiment with LOX IMVI, 11.2 µM (inactive); with LXFL 529 it was 18.6 µM (inactive). For the same compound, the GI50 in the experiment on HOP-62 is > 100 µM (inactive); with SNB-75, 0.0885 µM (active); in the experiment with UACC-257, > 100 µM (inactive); with U-251 it was > 100 µM (inactive); with TK-10 it was 51.1 µM (inactive); in the experiment with HCT-15, > 100 µM.
With `Cc1cc2c(cc1C)[n+]([O-])c(C(=O)CC(=O)C(=O)Nc1ccccc1C)c(C)[n+]2[O-]`, the GI50 in the experiment with KM12, with OVCAR-5, with SW-620, in the experiment on IGROV-1, in the experiment with SF-268 and in the experiment with CAKI-1 was > 100 µM (inactive) throughout. In addition, the GI50 was 46.5 µM (inactive) in the experiment on COLO 205; > 100 µM (inactive) in the experiment on OVCAR-8; 80.5 µM (inactive) in the experiment with NCI-H460; > 100 µM (inactive) in the experiment on ACHN; > 100 µM (inactive) with LOX IMVI; 84.7 µM (inactive) with LXFL 529. Besides, the GI50 was > 100 µM (inactive) with HOP-62; > 100 µM (inactive) in the experiment with SNB-75; > 100 µM (inactive) in the experiment with UACC-257; > 100 µM (inactive) in the experiment on U-251; > 100 µM (inactive) with TK-10; > 100 µM in the experiment on HCT-15.
Take `O=C(O)c1cc2c3ccccc3nc-2c[nH]1`: the GI50 with KM12, with OVCAR-5, in the experiment on SW-620, in the experiment with IGROV-1, in the experiment with SF-268 and in the experiment with CAKI-1 was > 100 µM (inactive) throughout. Also, the GI50 with COLO 205, with OVCAR-8, in the experiment on NCI-H460, with ACHN, in the experiment with LOX IMVI and with LXFL 529 was > 100 µM (inactive) each time. For the same compound, the GI50 in the experiment on HOP-62 was > 100 µM (inactive); in the experiment on SNB-75, > 100 µM (inactive); in the experiment on UACC-257, > 100 µM (inactive); in the experiment on U-251, > 100 µM (inactive); with TK-10, > 100 µM (inactive); with HCT-15, > 100 µM.
For the compound `COC1=C(OC)C(=O)c2cc(C)c(=O)c(C)cc2C1=O`, the GI50 with KM12 was 17.6 µM (inactive); in the experiment on OVCAR-5, 31.3 µM (inactive); with T47D it was 28.6 µM (inactive); in the experiment on PC-3, 20.3 µM (inactive); with SW-620 it was 8.61 µM (inactive); with IGROV-1 it was 18.6 µM (inactive). For the same compound, the GI50 in the experiment on SF-268 is 13.6 µM (inactive); with CAKI-1, 17.3 µM (inactive); with COLO 205 it was 19.1 µM (inactive); with OVCAR-8, 17.3 µM (inactive); in the experiment on NCI-H460, 24.7 µM (inactive); in the experiment with ACHN, 14.8 µM (inactive). Also, the GI50 with LOX IMVI was 11.2 µM (inactive); in the experiment with LXFL 529, 4.36 µM (inactive); with HOP-62, 21.3 µM (inactive); with SNB-75, 18.4 µM (inactive); in the experiment with UACC-257, 11.2 µM (inactive); in the experiment with U-251, 17.2 µM (inactive). The GI50 in the experiment with TK-10 is 19.1 µM (inactive); in the experiment with HCT-15, 21.3 µM.

These data come from ChEMBL document CHEMBL1201862, “PubChem BioAssay data set” (2004).
